Legend:
rat jejunum [1] = experiment: Intestinal vascular permeability (radiolabelled albumin leakage) after endotoxin (LPS); format: in vivo; settings: 30 mg/kg, i.v, 3 h after LPS; determined 1 h later
Protocol: FIG. 10 . Effects of FeTMPS, FeTMPyP or ZnTMPyP (30 mg/kg, i.v bolus) administered 3 h after challenge with E. coli lipopolysaccharide (LPS, 3 mg/kg, i.v bolus) on the increase in leakage of radio-labelled albumin (plasma extravasation, μl/g tissue) observed 1 h later (e.g 4 h after LPS challenge) in the rat jejunum. Results are shown as mean±s.e.m of 4-8 rats.
Intestinal vascular permeability was determined as the leakage into the jejunal tissue of [^125 I]-labelled bovine serum albumin ([^125 ]-BSA) administered intravenously (0.5 ml; 0.5 μCi) together with either LPS (3 mg/kg, serotype O111:B4) or isotonic saline. At 4 h after LPS administration, segments of jejunal tissue were ligated and removed. The intestinal tissues were rapidly washed, blotted dry and weighed. Blood (0.5 ml) was collected into tubes containing tri-sodium citrate (0.318% final concentration) and plasma prepared by centrifugation (10,000 g×10 min). The {^125 I]-BSA content in segments of whole tissue and in aliquots of plasma (100 μl) was determined in a gamma counter. The total content of plasma in the intestinal tissues was expressed as μl/g tissue. Changes in intravascular volume in the intestinal tissue was determined in an additional group of rats by administering ([^125 I]-BSA) intravenously 2 min before removal of the jejunum. The tissue and plasma content of radiolabel was determined and intravascular volume expressed as μl/g tissue. This value was substracted from that obtained in the plasma leakage studies to obtain a measure of the intestinal plasma albumin leakage. After LPS administration (4 h), there was a significant (P<0.01) increase in the plasma leakage (from 77±10 to 224±18 μl/g tissue, n=8).

[2] = system: carrageenan-induced paw edema; experiment: Carrageenan-induced paw edema; format: in vivo, rat
Description: Carrageenan-induced paw edema. The effects of peroxynitrite catalysts in vivo were initially tested on the carrageenan-induced paw edema. The choice of using this in vivo model of inflammation was based on the knowledge that 1) the inflammatory response is blocked by NOS inhibitors and 2) by superoxide dismutase (SOD). This indicates the participation of both NO and of O2-. Male Sprague Dawley rats were purchased from Harlan Sprague-Dawley (Indianapolis, Ind.). Male Sprague Dawley rats (175-200 g) received a subplantar injection in the right hind paw of carrageenan (0.1 ml of a 1% suspension in 0.85% saline). Paw volume was measured by a plethysmometer immediately before the injection of carrageenan and then at hourly intervals from 1 to 6 h. Edema was expressed as the increase in paw volume (in ml) measured after carrageenan injection compared to the pre-injection value for individual animals.

RAW 264.7 cells = experiment: Cell protection assay, Alamar Blue viability after peroxynitrite challenge; format: cell-based, murine; settings: for protection of cells from PN-mediated injury: PN 500 micromolar, RAW cells, FIG. 9 (H2 TMPyP and ZnTMPyP: data not shown)
Protocol: FIG. 8: Comparison of Ni and Fe Catalyst Protection of RAW Cells from PN(peroxynitrite)-mediated Injury. RAW 264.7 cells were plated at approximately 2×10^5 per well of a 96-well plate. […] Each condition represents the mean of 4 wells ±sem.
FIG. 9: Protection from PN-mediated RAW Cell Injury by Fe Catalysts. Cells were treated with 500 micromolar PN in the presence or the absence of the following catalysts: FeTMPyP, FeTMPS, FeTPPS. Cell viability was monitored as described in the text and figure legends 1, 2 and 3. Values represent the mean of 4 determinations ±sem.
Protocol for Cell Protection Assays using Peroxynitrite Decomposition Catalysts: A cell viability assay was established to rapidly assess the efficacy of peroxynitrite(PN) catalysts in protecting cells from PN25 mediated injury and death. The peroxynitrite challenge consisted of a pulse of synthetic PN added exogenously to cells. In order to better assess the efficacy of PN catalysts in protecting cells from PN-mediated damage, a quantity of peroxynitrite(in 50 mM NaOH) determined to cause maximal injury(100%) was added as an exogenous pulse to each well of cells in the presence or absence of catalyst. The NaOH vehicle was not toxic by itself.
Cells(RAW 264.7 cells or P815 mastocytoma cells; American Type Culture Collection, Rockville, Md.) were plated to confluence on 96-well tissue culture plates. Each well is washed twice with Dulbecco's phosphate buffered saline(DPBS; GIBCO BRL, Grand Island, N.Y.) to remove protein and other serum components which might react with the exogenous peroxynitrite. To each well is then added 200 μl of DPBS. PN is next placed into separate wells at increasing concentrations and cell viability monitored. The dose at which maximal cell death is attained is then utilized for the catalyst protection assessment.
Phosphate-buffered saline (200 uL) containing increasing concentrations of catalyst is next placed into individual wells of cells. The maximal dose of PN is subsequently administered to all wells of cells. After 15 minutes, the medium is removed from each well and the cells are either allowed to recover overnight in Earles minimum essential medium without phenol red and supplemented with 10% fetal bovine serum or alternatively the plate of cells is assayed that day for mitochondrial integrity using the Alamar Blue viability assay(Alamar Biosciences, Inc.; Sacramento, Calif.). In either case, cells are incubated at 37° C. in 5% CO2.
Cell injury is measured as follows. Briefly, 10% Alamar Blue(v/v) in Earles MEM with 10% FBS is added to each well of cells for 1-2h. Cell metabolism of the dye generates a fluorescent product which is directly related to the number of viable cells. Moreover, the production of the fluorescent metabolite is linear for over 2 h. The amount of fluorescent product in 100 μl of conditioned medium from each well of cells is then measured with an IDEXX fluorescent plate reader (gain setting of 1%) at an emission wavelength of 575 nm after exciting at 545 nm. Viability is either given as absolute fluorescent units or as a percent of the value obtained for untreated cells(100%).

rat jejunum [3] = experiment: Histological examination of jejunal tissues after LPS; format: in vivo; settings: 30 mg/kg i.v.
[4] = 3 mg/kg i.v., 1 h post carrageenan
[5] = 3 mg/kg i.v., 2 h post carrageenan
[6] = 3 mg/kg i.v., 3 h post carrageenan
[7] = 3 mg/kg i.v., 4 h post carrageenan
[8] = 3 mg/kg i.v., 5 h post carrageenan
[9] = 3 mg/kg i.v., 6 h post carrageenan
[10] = 10 mg/kg i.v., 1 h post carrageenan
[11] = 10 mg/kg i.v., 2 h post carrageenan
[12] = 10 mg/kg i.v., 3 h post carrageenan
[13] = 10 mg/kg i.v., 4 h post carrageenan
[14] = 10 mg/kg i.v., 5 h post carrageenan
[15] = 10 mg/kg i.v., 6 h post carrageenan
[16] = 30 mg/kg i.v., 1 h post carrageenan
[17] = 30 mg/kg i.v., 2 h post carrageenan
[18] = 30 mg/kg i.v., 3 h post carrageenan
[19] = 30 mg/kg i.v., 4 h post carrageenan
[20] = 30 mg/kg i.v., 5 h post carrageenan
[21] = 30 mg/kg i.v., 6 h post carrageenan

| SMILES | radiolabelled albumin leakage (rat jejunum [1]) | % Inhibition of Paw Edema [2, 4] [%] | % Inhibition of Paw Edema [2, 5] [%] | % Inhibition of Paw Edema [2, 6] [%] | % Inhibition of Paw Edema [2, 7] [%] | % Inhibition of Paw Edema [2, 8] [%] | % Inhibition of Paw Edema [2, 9] [%] | % Inhibition of Paw Edema [2, 10] [%] | % Inhibition of Paw Edema [2, 11] [%] | % Inhibition of Paw Edema [2, 12] [%] | % Inhibition of Paw Edema [2, 13] [%] | % Inhibition of Paw Edema [2, 14] [%] | % Inhibition of Paw Edema [2, 15] [%] | % Inhibition of Paw Edema [2, 16] [%] | % Inhibition of Paw Edema [2, 17] [%] | % Inhibition of Paw Edema [2, 18] [%] | % Inhibition of Paw Edema [2, 19] [%] | % Inhibition of Paw Edema [2, 20] [%] | % Inhibition of Paw Edema [2, 21] [%] | protection of cells from PN-mediated injury (RAW 264.7 cells) | further results |
| --- | --- | --- | --- | --- | --- | --- | --- | --- | --- | --- | --- | --- | --- | --- | --- | --- | --- | --- | --- | --- | --- |
| CC(=O)[O-].Cc1c(-c2c3nc(c(-c4c(C)c(S(=O)(=O)[O-])c(C)c(S(=O)(=O)[O-])c4C)c4ccc([n-]4)c(-c4c(C)c(S(=O)(=O)[O-])c(C)c(S(=O)(=O)[O-])c4C)c4nc(c(-c5c(C)c(S(=O)(=O)[O-])c(C)c(S(=O)(=O)[O-])c5C)c5ccc2[n-]5)C=C4)C=C3)c(C)c(S(=O)(=O)[O-])c(C)c1S(=O)(=O)[O-].[Fe+3].[Na+].[Na+].[Na+].[Na+].[Na+].[Na+].[Na+].[Na+] [Fe(III)TMPS, Acetato-5,10,15,20-tetrakis(3,5-disulfonatomesityl)porphyrin Iron (III) octasodium salt] | caused a reduction in radiolabelled albumin leakage | 0 | 42 | 47 | 47 | 33 | 33 | 0 | 61 | 60 | 53 | 53 | 47 | 0 | 85 | 80 | 80 | 80 | 81 | significant protection of cells | LPS-induced jejunal damage (histology) (rat jejunum [3]): LPS-induced damage was less severe |
| CC(=O)[O-].C[n+]1ccc(-c2c3nc(c(-c4cc[n+](C)cc4)c4ccc([n-]4)c(-c4cc[n+](C)cc4)c4nc(c(-c5cc[n+](C)cc5)c5ccc2[n-]5)C=C4)C=C3)cc1.Cc1ccc(S(=O)(=O)[O-])cc1.Cc1ccc(S(=O)(=O)[O-])cc1.Cc1ccc(S(=O)(=O)[O-])cc1.Cc1ccc(S(=O)(=O)[O-])cc1.[Fe+3] [Fe(III)TMPyP, Acetato (5,10,15,20-tetrakis(N-methyl-4-pyridyl)porphinato) iron (III) tetra-tosylate] | caused a reduction in radiolabelled albumin leakage | 0 | 9 | 10 | 17 | 6 | 0 | 6 | 13 | 11 | 28 | 21 | 2 | 0 | 44 | 43 | 50 | 32 | 32 | significant protection of cells | protection of RAW 264.7 cells from PN-mediated injury (RAW 264.7 cells; PN 360 micromolar, Alamar Blue, FIG. 8): total protection from PN-mediated injury; LPS-induced jejunal damage (histology) (rat jejunum [3]): LPS-induced damage was less severe |
